Reference: patent US8455474B2, “Method for treating tuberculosis” (Mackay Memorial Hospital, priority 2011, dated 2013)

How the values were obtained:
[1] = test system: Mycobacterium tuberculosis; assay: Killing kinetics in vitro (7H9 broth OD600, CFU on 7H11 agar); type: cell-based
Procedure: Mycobacterium tuberculosis strains were obtained from the culture collection of the Mycobacteriology Laboratory, Mackay Memorial Hospital, Taipei, Taiwan. The organisms were cultured on Lowenstein-Jensen medium slant at 37° C. in a 10% CO2 humidified atmosphere. In mid-log phase, the colonies were harvested and resuspended with PBS. The turbidity of suspension was adjusted to a McFarland 0.5 standard, containing approximately 1×10^8 bacteria/ml.
Strains were grown in 7H9 medium and the turbidity of suspension was adjusted to a McFarland 0.5 standard and used as inocula after ten-fold dilution in 7H9 medium with or without various concentrations of EZETIMIBE. The kinetics of bactericidal effect of EZETIMIBE was estimated by measuring the optical density at 600 nm at the indicated time points, followed by plating for colony formation unit (CFU) enumeration on 7H11 agar plates.

[2] = test system: M. tuberculosis internalization into monocytes; assay: Internalization of M. tuberculosis by monocytes (flow cytometry); type: cell-based, Mycobacterium tuberculosis
Procedure: (§1) Peripheral blood mononuclear cells were isolated from whole blood by means of Ficoll-Paque gradient centrifugation. Monocytes were incubated with CD14 microbeads, after which the CD14-positive cells were separated out by a magnet. These cells were seeded in U-bottom 96-well plates at a density of 2×10^5 cells in a volume of 200 μl of PRMI-1640 medium with 10% FCS and cultured for 1 hour in the presence or absence of EZETIMIBE (resolved in alcohol). Next, 5×10^5 M. tuberculosis bacteria were added to each well, followed by incubation for 24 hours. Cell viability was tested by using trypan blue staining. In the post-treatment experiment, monocytes were infected with M. tuberculosis bacteria for 1 hour and then added with EZETIMIBE for another 24 hours. In the cholesterol supplement experiment, water soluble cholesterol (Sigma) was resolved in sterile deionized water and added into the culture medium with or without EZETIMIBE.
Infected monocytes described above receiving either EZETIMIBE or control were washed with PBS to remove unbound bacteria and fixed with 4% formalin for 24 hours at 4° C. Then cells were permeabilized by using permeabilization buffer and stained with fluorescein isothiocyanate-conjugated anti-M. tuberculosis antibody for 1 hour at 4° C. The fluorescence intensity of intracellular M. tuberculosis was than analyzed by flow cytometry. Stained cells were evaluated by FACS Calibur flow cytometer (BD Bioscience). Analysis was performed using CellQuest software (BD Bioscience).
As shown in FIGS. 2A-2D, the experiments were performed to assess whether the treatment of EZETIMIBE affected M. tuberculosis internalization into monocytes, and the monocytes were pretreated with EZETIMIBE for 24 hours or 48 hours.

[3] = test system: intracellular M. tuberculosis in monocytes; assay: Intracellular survival of M. tuberculosis in monocytes (CFU assay); type: cell-based, Mycobacterium tuberculosis
[4] = target: T1, CD13 (Homo sapiens, UniProt P15144); assay: CD13 expression on monocytes (antiCD13 antibody staining); type: cell-based; settings: monocytes pretreated 24 or 48 hours, clones WM15 and WM47
T1 construct: whether the treatment of EZETIMIBE affected CD13 expression on monocytes; endogenous in cells; host or cells: monocytes
T1 sequence (P15144 whole entry): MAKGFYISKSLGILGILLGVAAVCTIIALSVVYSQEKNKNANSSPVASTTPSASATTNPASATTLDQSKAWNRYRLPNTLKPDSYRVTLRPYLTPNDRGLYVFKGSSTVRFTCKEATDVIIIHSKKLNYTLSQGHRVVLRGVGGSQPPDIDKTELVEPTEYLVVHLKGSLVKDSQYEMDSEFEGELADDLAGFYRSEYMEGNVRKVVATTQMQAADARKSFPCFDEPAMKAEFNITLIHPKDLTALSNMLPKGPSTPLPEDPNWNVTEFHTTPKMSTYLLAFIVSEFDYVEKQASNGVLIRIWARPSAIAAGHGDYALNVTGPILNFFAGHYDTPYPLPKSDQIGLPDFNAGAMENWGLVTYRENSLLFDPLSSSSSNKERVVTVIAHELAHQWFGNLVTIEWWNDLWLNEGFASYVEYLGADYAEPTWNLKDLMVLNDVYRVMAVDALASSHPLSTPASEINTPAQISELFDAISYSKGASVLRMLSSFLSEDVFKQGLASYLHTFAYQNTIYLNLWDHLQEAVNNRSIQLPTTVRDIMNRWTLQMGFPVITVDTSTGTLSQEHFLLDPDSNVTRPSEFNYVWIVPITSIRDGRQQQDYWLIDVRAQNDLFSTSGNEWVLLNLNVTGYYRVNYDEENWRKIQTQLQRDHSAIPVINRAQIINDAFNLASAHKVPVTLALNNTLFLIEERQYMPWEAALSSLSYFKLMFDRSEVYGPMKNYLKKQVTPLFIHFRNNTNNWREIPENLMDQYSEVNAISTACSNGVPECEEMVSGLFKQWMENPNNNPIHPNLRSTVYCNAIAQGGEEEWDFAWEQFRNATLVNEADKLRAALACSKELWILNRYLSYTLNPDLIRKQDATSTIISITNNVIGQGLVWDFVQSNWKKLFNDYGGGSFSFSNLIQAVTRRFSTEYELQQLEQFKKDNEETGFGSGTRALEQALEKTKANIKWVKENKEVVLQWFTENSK

[5] = test system: monocytes; assay: Cholesterol uptake of monocytes (nile red staining, flow cytometry); type: cell-based; settings: cholesterol supplement 10 μg/ml
Procedure: as §1
A stock solution of nile red (1 mg/ml) in acetone was prepared and stored at 4° C. and protected from light. The nile red solution was added to the cell preparation (final concentration: 1 μg/ml) for 10 minutes and excess dye was washed away with PBS. Nile red fluorescence was examined at two spectral settings, yellow-gold fluorescence (FL1 channel, excitation, 488 nm; emission, 530±30 nm) for cytoplasmic neutral lipids and red fluorescence (FL2 channel, excitation, 488 nm; emission, 585±21 nm) for polar lipids, consist of phospholipids, other amphipathic lipids, and strongly hydrophobic proteins of cell membranes as reported. Stained cells were evaluated by FACS Calibur flow cytometer (BD Bioscience). Analysis was performed using CellQuest software (BD Bioscience).
As shown in FIGS. 5A-B, monocytes were infected with M. tuberculosis bacteria followed by treatment with EZETIMIBE for 24 hours. Nile red staining was used to assess the intracellular lipid droplets by flow cytometry. Nile red fluorescence was examined at two spectral settings, yellow-gold fluorescence (FL1 channel, excitation, 488 nm; emission, 530±30 nm) for cytoplasmic neutral lipids, included triglyceride, cholesterol, cholesterol esters and free fatty acid, and red fluorescence (FL2 channel, excitation, 488 nm; emission, 585±21 nm) for polar lipids. Significant increase fluorescence intensity of FL1 channel not FL2 channel was observed following cholesterol supplement (10 μg/ml) in monocytes culture without infection, and EZETIMIBE (10 μg/ml and 20 μg/ml) can inhibit the uptake of cholesterol by reducing the relative fluorescence of FL1 channel from 1.5 to 1.2 and 1.3, respectively.

[6] = test system: intracellular M. tuberculosis in monocytes; assay: Intracellular survival of M. tuberculosis in monocytes with cholesterol supplement (CFU assay); type: cell-based, Mycobacterium tuberculosis; settings: post-treatment 24 hours

O=C1[C@H](CC[C@H](O)c2ccc(F)cc2)[C@@H](c2ccc(O)cc2)N1c1ccc(F)cc1 [EZETIMIBE, (3R,4S)-1-(4-fluorophenyl)-3-[(3S)-3-(4-fluorophenyl)-3-hydroxypropyl]-4-(4-hydroxyphenyl)zetidin-2-one]
colony-forming units (CFU) of Mycobacterium tuberculosis on 7H11 agar plate ([1]; 15 and 30 μg/ml for 72 hours, read at 3rd week (FIG. 1C)): significantly reduced
M. tuberculosis survival in suspension with increasing amount of bacteria ([1]; FIG. 1B): inhibition on M. tuberculosis survival was found
growth of Mycobacterium tuberculosis in 7H9 broth ([1]; increasing concentrations, 2nd and 3rd week (FIG. 1A)): inhibition effect on growth
entry reduction of M. tuberculosis into monocytes ([2]; post-treatment of monocytes, 24 hours): up to 0.65%
entry reduction of M. tuberculosis into monocytes ([2]; post-treatment of monocytes, 48 hours): ≤ 26.02%
entry reduction of M. tuberculosis into monocytes ([2]; pre-treatment of monocytes, 48 hours): up to 18.28%
CFU counts ([3]; post-treatment: infection 1 hour then 10 ng/ml for 24 hours, without drug 8320): 4090 per 10,000 cells
CFU counts ([3]; post-treatment: infection 1 hour then 20 ng/ml for 24 hours, without drug 8320): 2858 per 10,000 cells
CFU counts ([3]; pre-treatment 1 hour then infection 24 hours, 10 ng/ml, without drug 7358): 5880 per 10,000 cells
CFU counts ([3]; pre-treatment 1 hour then infection 24 hours, 20 ng/ml, without drug 7358): 4000 per 10,000 cells
CD13 expression on monocytes [4]: down-regulation of CD13 expression
relative fluorescence of FL1 channel (nile red, neutral lipids) ([5]; M. tuberculosis infected monocytes, 24 hours, EZETIMIBE 10 μg/ml, without drug 1.4): 0.9
relative fluorescence of FL1 channel (nile red, neutral lipids) ([5]; M. tuberculosis infected monocytes, 24 hours, EZETIMIBE 20 μg/ml, without drug 1.4): 1.0
relative fluorescence of FL1 channel (nile red, neutral lipids) ([5]; monocytes without infection, EZETIMIBE 10 μg/ml, without drug 1.5): 1.2
relative fluorescence of FL1 channel (nile red, neutral lipids) ([5]; monocytes without infection, EZETIMIBE 20 μg/ml, without drug 1.5): 1.3
CFU counts ([6]; EZETIMIBE 10 μg/ml, cholesterol supplement 10 μg/ml, without drug 10600): 7692 per 10,000 cells
CFU counts ([6]; EZETIMIBE 10 μg/ml, cholesterol supplement 20 μg/ml): 12545 per 10,000 cells
CFU counts ([6]; EZETIMIBE 20 μg/ml, cholesterol supplement 10 μg/ml, without drug 10600): 4800 per 10,000 cells
CFU counts ([6]; EZETIMIBE 20 μg/ml, cholesterol supplement 20 μg/ml): 10333 per 10,000 cells
